Assays:
[1] = target: 5-hydroxytryptamine receptor 2A (Homo sapiens, UniProt P28223); type: functional, cell-based
Glucocorticoid receptor = target: T1, Glucocorticoid receptor (Homo sapiens, UniProt P04150)
T1 sequence (P04150 whole entry): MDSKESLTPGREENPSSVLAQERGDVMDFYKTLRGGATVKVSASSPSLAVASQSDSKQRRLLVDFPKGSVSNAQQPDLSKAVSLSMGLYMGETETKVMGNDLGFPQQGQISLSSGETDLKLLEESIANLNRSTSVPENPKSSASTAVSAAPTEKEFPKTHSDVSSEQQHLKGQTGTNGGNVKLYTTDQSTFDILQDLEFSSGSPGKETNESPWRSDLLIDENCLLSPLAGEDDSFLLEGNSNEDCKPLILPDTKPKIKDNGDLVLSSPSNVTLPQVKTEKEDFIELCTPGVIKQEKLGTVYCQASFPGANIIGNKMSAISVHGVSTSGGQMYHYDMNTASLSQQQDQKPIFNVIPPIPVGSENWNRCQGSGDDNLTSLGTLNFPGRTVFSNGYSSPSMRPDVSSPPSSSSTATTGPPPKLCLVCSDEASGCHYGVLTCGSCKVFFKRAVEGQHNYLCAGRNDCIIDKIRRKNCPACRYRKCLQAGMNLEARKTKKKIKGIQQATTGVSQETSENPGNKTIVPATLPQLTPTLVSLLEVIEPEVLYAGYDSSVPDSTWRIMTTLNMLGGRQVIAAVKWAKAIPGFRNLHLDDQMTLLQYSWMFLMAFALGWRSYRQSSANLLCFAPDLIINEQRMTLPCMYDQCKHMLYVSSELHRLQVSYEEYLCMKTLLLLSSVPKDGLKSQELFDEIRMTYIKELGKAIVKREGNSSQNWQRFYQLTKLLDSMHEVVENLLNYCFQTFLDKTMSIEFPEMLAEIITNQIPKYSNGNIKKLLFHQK

D(4) dopamine receptor = target: T2, D(4) dopamine receptor (Homo sapiens, UniProt P21917)
T2 sequence (P21917 whole entry): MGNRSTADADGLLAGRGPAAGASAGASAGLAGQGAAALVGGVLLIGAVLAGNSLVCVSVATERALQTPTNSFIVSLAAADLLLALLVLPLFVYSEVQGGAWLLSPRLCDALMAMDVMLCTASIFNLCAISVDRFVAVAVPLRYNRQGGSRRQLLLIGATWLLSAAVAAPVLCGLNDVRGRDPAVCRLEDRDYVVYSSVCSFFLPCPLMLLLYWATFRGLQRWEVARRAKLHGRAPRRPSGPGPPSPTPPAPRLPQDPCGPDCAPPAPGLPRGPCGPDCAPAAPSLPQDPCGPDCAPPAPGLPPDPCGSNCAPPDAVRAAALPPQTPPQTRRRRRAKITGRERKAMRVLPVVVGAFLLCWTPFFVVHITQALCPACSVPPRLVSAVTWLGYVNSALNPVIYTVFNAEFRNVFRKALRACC

[2] = target: T3, Muscarinic acetylcholine receptor M2 (Homo sapiens, UniProt P08172)
T3 sequence (P08172 whole entry): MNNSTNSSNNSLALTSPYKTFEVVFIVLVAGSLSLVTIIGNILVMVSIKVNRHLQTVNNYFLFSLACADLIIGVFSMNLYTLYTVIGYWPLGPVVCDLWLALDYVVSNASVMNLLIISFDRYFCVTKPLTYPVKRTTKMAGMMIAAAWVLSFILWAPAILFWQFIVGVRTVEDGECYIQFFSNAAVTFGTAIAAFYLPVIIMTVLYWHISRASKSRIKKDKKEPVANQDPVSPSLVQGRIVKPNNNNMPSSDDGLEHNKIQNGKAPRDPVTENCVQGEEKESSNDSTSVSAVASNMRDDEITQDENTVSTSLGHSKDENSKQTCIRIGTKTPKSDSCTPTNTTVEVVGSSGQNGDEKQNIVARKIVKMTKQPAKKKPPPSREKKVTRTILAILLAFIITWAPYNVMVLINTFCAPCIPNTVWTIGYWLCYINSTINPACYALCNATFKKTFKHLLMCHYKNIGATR

[3] = target: Beta-3 adrenergic receptor (Homo sapiens, UniProt P13945)
Sequence of Beta-3 adrenergic receptor (P13945 whole entry): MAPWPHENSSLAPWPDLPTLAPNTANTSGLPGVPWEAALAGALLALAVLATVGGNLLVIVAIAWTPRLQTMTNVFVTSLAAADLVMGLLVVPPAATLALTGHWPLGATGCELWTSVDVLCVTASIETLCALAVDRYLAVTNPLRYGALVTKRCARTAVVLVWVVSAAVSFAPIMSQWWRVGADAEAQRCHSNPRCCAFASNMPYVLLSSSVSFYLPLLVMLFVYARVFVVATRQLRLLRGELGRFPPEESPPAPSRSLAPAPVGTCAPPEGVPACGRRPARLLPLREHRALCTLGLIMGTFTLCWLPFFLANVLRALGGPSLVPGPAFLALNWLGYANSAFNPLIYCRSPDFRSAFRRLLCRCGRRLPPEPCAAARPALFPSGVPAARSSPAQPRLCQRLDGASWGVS

[4] = target: Neurotensin receptor type 1 (Homo sapiens, UniProt P30989)
Sequence of Neurotensin receptor type 1 (P30989 whole entry): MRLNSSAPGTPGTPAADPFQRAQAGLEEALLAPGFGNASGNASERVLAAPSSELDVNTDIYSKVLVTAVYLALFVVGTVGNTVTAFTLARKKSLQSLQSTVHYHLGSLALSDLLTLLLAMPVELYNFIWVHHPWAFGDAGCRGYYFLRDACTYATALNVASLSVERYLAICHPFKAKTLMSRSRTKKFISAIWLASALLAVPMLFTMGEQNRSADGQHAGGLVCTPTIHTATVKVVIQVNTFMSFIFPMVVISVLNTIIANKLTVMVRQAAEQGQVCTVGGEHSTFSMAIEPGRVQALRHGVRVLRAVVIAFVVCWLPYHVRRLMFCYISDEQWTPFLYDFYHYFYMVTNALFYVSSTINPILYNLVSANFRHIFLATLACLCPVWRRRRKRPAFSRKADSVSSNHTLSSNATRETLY

Progesterone receptor = target: T4, Progesterone receptor (Homo sapiens, UniProt P06401)
T4 sequence (P06401 whole entry): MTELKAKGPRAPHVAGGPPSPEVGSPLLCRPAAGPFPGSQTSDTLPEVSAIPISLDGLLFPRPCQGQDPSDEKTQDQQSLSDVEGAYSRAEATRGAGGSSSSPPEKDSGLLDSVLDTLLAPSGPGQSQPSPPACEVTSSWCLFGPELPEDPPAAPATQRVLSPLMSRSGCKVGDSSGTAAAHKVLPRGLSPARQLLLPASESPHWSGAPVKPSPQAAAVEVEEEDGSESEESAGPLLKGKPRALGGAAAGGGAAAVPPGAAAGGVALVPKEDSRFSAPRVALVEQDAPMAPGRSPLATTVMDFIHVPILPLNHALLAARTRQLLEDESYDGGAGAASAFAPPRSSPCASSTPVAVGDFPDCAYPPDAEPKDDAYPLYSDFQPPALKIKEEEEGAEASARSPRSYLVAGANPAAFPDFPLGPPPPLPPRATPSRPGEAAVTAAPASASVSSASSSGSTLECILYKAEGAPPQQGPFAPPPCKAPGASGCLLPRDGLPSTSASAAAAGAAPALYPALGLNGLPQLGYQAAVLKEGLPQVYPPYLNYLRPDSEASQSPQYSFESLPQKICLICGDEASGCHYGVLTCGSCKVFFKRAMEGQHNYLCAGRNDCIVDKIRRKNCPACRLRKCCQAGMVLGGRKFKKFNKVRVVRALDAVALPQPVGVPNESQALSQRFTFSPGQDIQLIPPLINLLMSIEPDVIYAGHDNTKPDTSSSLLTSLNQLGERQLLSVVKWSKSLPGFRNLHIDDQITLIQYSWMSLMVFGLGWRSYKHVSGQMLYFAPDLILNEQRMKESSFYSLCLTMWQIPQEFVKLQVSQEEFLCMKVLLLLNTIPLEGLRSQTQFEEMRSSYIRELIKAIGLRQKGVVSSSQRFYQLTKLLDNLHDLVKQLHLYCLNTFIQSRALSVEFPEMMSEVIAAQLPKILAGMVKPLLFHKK
Note: assay procedure not described here.

Sequence of 5-hydroxytryptamine receptor 2A (P28223 whole entry): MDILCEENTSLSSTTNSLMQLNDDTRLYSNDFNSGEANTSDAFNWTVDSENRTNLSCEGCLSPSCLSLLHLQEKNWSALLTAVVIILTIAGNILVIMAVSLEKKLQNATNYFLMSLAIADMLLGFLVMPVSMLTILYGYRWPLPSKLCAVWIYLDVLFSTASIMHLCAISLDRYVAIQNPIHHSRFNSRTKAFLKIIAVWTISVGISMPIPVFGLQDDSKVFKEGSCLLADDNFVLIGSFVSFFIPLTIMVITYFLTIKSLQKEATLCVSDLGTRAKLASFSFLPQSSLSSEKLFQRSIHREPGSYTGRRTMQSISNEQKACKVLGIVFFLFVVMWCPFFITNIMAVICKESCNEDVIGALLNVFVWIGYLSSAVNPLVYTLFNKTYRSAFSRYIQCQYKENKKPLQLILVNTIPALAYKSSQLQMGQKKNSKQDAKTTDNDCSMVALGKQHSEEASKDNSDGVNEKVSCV

Row | Structure (SMILES) | AC50 [1] | AC50 (Glucocorticoid receptor) | AC50 [2] | also measured
1 | C[C@H](CCC(=O)O)[C@H]1CC[C@H]2[C@@H]3[C@@H](O)C[C@@H]4C[C@H](O)CC[C@]4(C)[C@H]3CC[C@]12C [URSODIOL] | > 30 µM | – | – | –
2 | CC(C(=O)O)c1ccc2c(c1)[nH]c1ccc(Cl)cc12 (stereo not drawn) [CARPROFEN] | > 10 µM | > 30 µM | – | –
3 | CN(CC1(C)CCCO1)S(=O)(=O)c1ccc(Cl)c(S(N)(=O)=O)c1 (stereo not drawn) [MEFRUSIDE] | > 30 µM | – | – | –
4 | COc1cc2nc(N3CCN(C(=O)C4CCCO4)CC3)nc(N)c2cc1OC (stereo not drawn) [TERAZOSIN] | – | > 30 µM | > 10 µM | AC50 (D(4) dopamine receptor): > 10 µM; AC50 [3]: > 30 µM; AC50 [4]: > 30 µM
5 | COc1ccccc1OCCNCC(O)COc1cccc2[nH]c3ccccc3c12 (stereo not drawn) [CARVEDILOL] | – | > 30 µM | > 10 µM | AC50 (D(4) dopamine receptor): 0.0172 µM; AC50 (Progesterone receptor): > 30 µM; AC50 [4]: > 30 µM
6 | CCCN(CCC)C(=O)Cc1c(-c2ccc(Cl)cc2)nc2ccc(Cl)cn12 [ALPIDEM] | – | – | > 10 µM | AC50 (D(4) dopamine receptor): > 10 µM
7 | O=C1CN(/N=C/c2ccc(-c3ccc([N+](=O)[O-])cc3)o2)C(O)=N1 [DANTROLENE] | > 10 µM | > 10 µM | – | –
8 | C[C@@H](NCCCc1cccc(C(F)(F)F)c1)c1cccc2ccccc12 | > 30 µM | > 30 µM | – | –
9 | CC(C)Cc1ccc(C(C)C(=O)O)cc1 (stereo not drawn) [IBUPROFEN] | – | > 30 µM | > 10 µM | AC50 (D(4) dopamine receptor): > 10 µM; AC50 (Progesterone receptor): > 30 µM; AC50 [3]: 7.12 µM; AC50 [4]: > 30 µM
10 | C=CC[C@@H]1/C=C(\C)C[C@H](C)C[C@H](OC)[C@H]2O[C@@](O)(C(=O)C(=O)N3CCCC[C@H]3C(=O)O[C@H](/C(C)=C/[C@@H]3CC[C@@H](O)[C@H](OC)C3)[C@H](C)[C@@H](O)CC1=O)[C@H](C)C[C@@H]2OC [TACROLIMUS ANHYDROUS] | – | > 30 µM | > 10 µM | AC50 (D(4) dopamine receptor): > 10 µM; AC50 (Progesterone receptor): > 30 µM; AC50 [3]: 12.2 µM; AC50 [4]: > 30 µM
11 | CC(=O)O[C@]1(C(C)=O)CC[C@H]2[C@@H]3C=C(C)C4=CC(=O)CC[C@@H]4[C@H]3CC[C@@]21C [NOMEGESTROL ACETATE] | > 30 µM | 0.067 µM | – | –
12 | C#C[C@]1(O)CC[C@H]2[C@@H]3CCC4=CC(=O)CC[C@@H]4[C@H]3C(=C)C[C@@]21CC [ETONOGESTREL] | > 30 µM | – | – | –
13 | CN(C)CC[C@@H](c1ccc(Cl)cc1)c1ccccn1 [DEXCHLORPHENIRAMINE] | – | > 30 µM | – | –
14 | CC(C)c1nc(N(C)S(C)(=O)=O)nc(-c2ccc(F)cc2)c1/C=C/[C@@H](O)C[C@@H](O)CC(=O)O [ROSUVASTATIN] | > 30 µM | > 30 µM | – | –
15 | C[C@H]1c2cccc(O)c2C(=O)C2=C(O)[C@]3(O)C(=O)C(C(N)=O)=C(O)[C@@H](N(C)C)[C@@H]3[C@@H](O)[C@@H]21 [DOXYCYCLINE] | – | – | > 10 µM | AC50 (D(4) dopamine receptor): > 10 µM; AC50 (Progesterone receptor): > 30 µM; AC50 [3]: > 30 µM; AC50 [4]: > 30 µM
16 | O=C1C(CC[S+]([O-])c2ccccc2)C(=O)N(c2ccccc2)N1c1ccccc1 (stereo not drawn) [SULFINPYRAZONE] | – | > 10 µM | – | –
17 | CCN(CC)CCNC(=O)c1c(C)[nH]c(/C=C2\C(=O)Nc3ccc(F)cc32)c1C [SUNITINIB] | – | > 30 µM | 7.19 µM | AC50 (D(4) dopamine receptor): 0.108 µM

Row | Structure (SMILES) | AC50 [1] | AC50 (Glucocorticoid receptor) | AC50 [2] | also measured
18 | COc1ccccc1Oc1c(NS(=O)(=O)c2ccc(C(C)(C)C)cc2)nc(-c2ncccn2)nc1OCCO [BOSENTAN] | – | > 30 µM | > 10 µM | AC50 (Progesterone receptor): > 30 µM; AC50 [3]: > 30 µM; AC50 [4]: > 30 µM
19 | COc1cc2nccc(Oc3ccc(NC(=O)C4(C(=O)Nc5ccc(F)cc5)CC4)cc3)c2cc1OC [CABOZANTINIB] | 2.9 µM | – | – | –
20 | OC[C@H]1O[C@@](CO)(O[C@H]2O[C@H](CO)[C@@H](O)[C@H](O)[C@H]2O)[C@@H](O)[C@@H]1O [SUCROSE] | > 30 µM | – | – | –
21 | C[C@@H](Oc1cc(-c2cnn(C3CCNCC3)c2)cnc1N)c1c(Cl)ccc(F)c1Cl [CRIZOTINIB] | – | – | > 10 µM | AC50 [3]: 14.2 µM
22 | O=C1CCc2cc(OCCCCc3nnnn3C3CCCCC3)ccc2N1 [CILOSTAZOL] | – | > 30 µM | – | AC50 (Progesterone receptor): > 30 µM
23 | COc1ccc(CC2c3cc(OC)c(OC)cc3CC[N+]2(C)CCC(=O)OCCCCCOC(=O)CC[N+]2(C)CCc3cc(OC)c(OC)cc3C2Cc2ccc(OC)c(OC)c2)cc1OC (stereo not drawn) | > 30 µM | > 30 µM | – | –
24 | CC(S)C(=O)NCC(=O)O (stereo not drawn) [TIOPRONIN] | > 30 µM | – | – | –
25 | CN(C)CCC[C@@]1(c2ccc(F)cc2)OCc2cc(C#N)ccc21 [ESCITALOPRAM] | – | > 30 µM | – | –
26 | CN1C(C(=O)Nc2ccccn2)=C(O)c2ccccc2S1(=O)=O [PIROXICAM] | – | > 10 µM | – | –
27 | C=C[C@H]1C[N@@]2CC[C@H]1C[C@@H]2[C@@H](O)c1ccnc2ccc(OC)cc12 [QUINIDINE] | – | – | – | AC50 (Progesterone receptor): > 30 µM
28 | C[C@]12C=CC(=O)N[C@@H]1CC[C@@H]1[C@@H]2CC[C@]2(C)[C@@H](C(=O)Nc3cc(C(F)(F)F)ccc3C(F)(F)F)CC[C@@H]12 [DUTASTERIDE] | > 10 µM | > 10 µM | – | –
29 | CCN1CCN(Cc2ccc(Nc3ncc(F)c(-c4cc(F)c5nc(C)n(C(C)C)c5c4)n3)nc2)CC1 [ABEMACICLIB] | 28 µM | – | – | –
30 | N[C@@H](CC(=O)N1CCn2c(nnc2C(F)(F)F)C1)Cc1cc(F)c(F)cc1F [SITAGLIPTIN] | – | – | > 10 µM | AC50 (D(4) dopamine receptor): > 10 µM; AC50 [4]: > 10 µM
31 | CC(C)N(CCC(C(N)=O)(c1ccccc1)c1ccccn1)C(C)C (stereo not drawn) [DISOPYRAMIDE] | – | – | – | AC50 (Progesterone receptor): > 30 µM; AC50 [3]: 8.37 µM; AC50 [4]: > 30 µM
32 | CO[C@H]1/C=C/O[C@@]2(C)Oc3c(C)c(O)c4c(O)c(c(/C=N/N5CCN(C)CC5)c(O)c4c3C2=O)NC(=O)/C(C)=C\C=C\[C@H](C)[C@H](O)[C@@H](C)[C@@H](O)[C@@H](C)[C@H](OC(C)=O)[C@@H]1C [RIFAMPIN] | – | – | – | AC50 (D(4) dopamine receptor): > 10 µM; AC50 (Progesterone receptor): > 30 µM; AC50 [3]: 32.6 µM; AC50 [4]: > 30 µM
33 | CC(N)C12CC3CC(CC(C3)C1)C2 (stereo not drawn) [RIMANTADINE] | – | > 10 µM | – | –
34 | CN(C)CCc1c[nH]c2ccc(Cn3cncn3)cc12 [RIZATRIPTAN] | – | – | > 10 µM | AC50 (D(4) dopamine receptor): > 10 µM; AC50 (Progesterone receptor): > 30 µM; AC50 [3]: > 30 µM; AC50 [4]: > 30 µM

Reference: ChEMBL document CHEMBL5291721, “A preclinical secondary pharmacology resource illuminates target-adverse drug reaction associations of marketed drugs” (Nat Commun, 2023)
